The source of these data is patent US11554126B2, “Methods of treating residual lesions of vascular anomalies” (Georgetown University, priority 2017, dated 2023).

In the data set the test system is fibrofatty residua (FFR) from an involuted infantile hemangioma. It is filed as in vivo, human. An excerpt:
A child was referred for treatment of an involuted IH. They were concerned about the visual appearance and the feeling of fullness caused by the significant convexity of the tumor. […] Initial measurement was 0.8 cm high and 7.5 cm wide. Management options including surgical excision and laser treatments were discussed. The patient's parent was apprehensive regarding surgery due to the inherent risks of scarring, nerve damage, infection, bleeding, and tissue necrosis.
As an alternative to these options, the present inventors considered administering DCA to the patient to reduce the protuberance of the mass. The associated risks of DCA administration, as well as off-label use, and lack of pediatric approval were discussed with the patient. Two series of injections were planned.
The site was anesthetized with a topical 40% lidocaine ointment. Following prepping with alcohol, an injection grid modified to overlay the affected tissue was applied. Subsequently, 0.2 mL of DCA concentrated to 2 mg/cm^2 was injected at 1 cm intervals using a total of 4.4 mL, followed by the application of ice packs.
As planned, injections were repeated 3 months later, using an additional 4.2 mL. […] The FFR measured 0.2 cm high and 6.4 cm wide (FIG. 2A-2B). […] Some of the superifical vessels appeared to resolve completely (clinically go away/not visible after treatment) post treatment.

For the compound `C[C@H](CCC(=O)O)[C@H]1CC[C@H]2[C@@H]3CC[C@@H]4C[C@H](O)CC[C@]4(C)[C@H]3C[C@H](O)[C@]12C` [DCA, 3α,12α-dihydroxy-5β-cholan-24-oic acid], the “improvement in visual appearance and degree of protrusion” value (after two series of intralesional DCA, two months after second injection) is given as “significant improvement”. Further, the “duration of moderate post-injection pain, erythema, bruising, and swelling” value (female, human, in vivo) was 24 to 48 h. Moreover, the “improvement after the first treatment” value (first series, 0.2 mL injections at 1 cm intervals, total 4.4 mL) was “marginal improvement”. Under “in vivo”, the skin tension result was “either maintained or enhanced” and the “tolerability of the procedure” value is “tolerated the procedure well”. Also, for the setting “post treatment, some of the vessels, some appeared to resolve completely”, the “visible superficial vessels and telangiectasias in the FFR” value was “decreased in size, caliber, and/or lightened in color”. Also, the “FFR height, final measurement post-treatment” value (right flank, after two series of intralesional DCA (4.4 mL, then 4.2 mL 3 months later), two months after second injection, baseline 0.8 cm) is recorded as 0.2 cm. Moreover, where the note is “right flank, after two series of intralesional DCA (4.4 mL, then 4.2 mL 3 months later), two months after second injection, baseline 7.5 cm”, the “FFR width, final measurement post-treatment” value was determined as 6.4 cm.
